From patent US4041168A, “Nitroimidazole derivative with antibacterial activity” (Gruppo Lepetit S.p.A., priority 1975, dated 1977) come the findings set out here.

The nature of data set [1]: in vivo activity against experimental infection in mice caused by Trichomonas vaginalis (ED50, Therapeutical Index). As to conditions: mouse, in vivo, po; ratio LD50/ED50, per os mice; read-out: Therapeutical Index (TI). The procedure: (§1) This activity, expressed as an ED50 value, is moreover coupled with a very low toxicity, expressed as an LD50 value, which was determined substantially according to the method described by Lichtfield and Wilcoxon, Journ. Pharm. Exp. Ther., 96, 99, 1949. In representative experiments, the following results have been obtained:
(§2) which indicate that the compound of the invention is a very useful and promising anti-Trichomonas agent. This becomes even more evident if one considers its Therapeutical Index (TI). Said parameter, which is mathematically expressed by the following ratio LD50 /ED50 gives a reliable idea about the safety of a drug and, considering how it is calculated, it is clear that the higher the TI, the safer the drug is; a high value of the Therapeutical Index means in fact a low effective dose (ED50) in comparison with the lethal dose (LD50). […] As an example, the 5-isopropyl-1-methyl-2-nitroimidazole, described in U.S. Pat. No. 3,499,967 and therein mentioned as one of the most outstanding in vivo active 2-nitroimidazoles against Trichomonas vaginalis, has a Therapeutical Index of 102.
(§3) 1. In the present experiment there are compared the anti-Trichomonas in vivo activities and the Therapeutical Indexes (TI) of the compound of the invention (hereinafter referred to as compound A) and four 5-hydroxy alkyl-2-nitroimidazoles described or falling within prior art patents. In these four compounds the hydroxy group is bound to a primary or secondary carbon atom which not necessarily is linked to the imidazole nucleus.
(§4) 2. In the following set of experiments there are evaluated the variations of Therapeutical Index (positive or negative) which are observed when some 5-alkyl-2 -nitroimidazoles known from the prior art are compared with the corresponding 5-hydroxyalkyl-2-nitroimidazoles, including the new compound A. Obviously all of the compounds are tested for their in vivo activity against Trichomonas vaginalis. […] With reference to the hereinbelow reported table and the first four pair of compounds, the results clearly indicate that the variations of Therapeutical Index which are observed are slightly positive or even negative i.e., that the Therapeutical Index of the known 5-hydroxyalkyl-2-nitroimidazoles either is worse than or is substantially the same as that of the corresponding 5-alkyl compounds: this practically means that no appreciable therapeutical results have been obtained, and that, considering the last pair of substances i.e., compound K and compound A (the compound of the invention), an unrelevant or unfavorable variation of the Therapeutical Index would have to be expected as well. On the contrary, a dramatically favorable and unpredictable variation of this parameter is observed and, clearly, this effect is to be interpreted as a remarkable improvement of the therapeutical (anti-Trichomonas) properties:
(§5) 3. In the third experiment there are evaluated the effects on the Therapeutical Index of the substitution with two methyl groups of two hydrogen atoms of the methyl radical at the 5-position of compound F namely [drawing 17] in comparison with the effects on the same parameter caused by the substitution with two methyl groups of the two hydrogen atoms of the hydroxymethyl group of compound B, namely [drawing 18] The compounds are obviously tested for their anti-Trichomonas in vivo properties.

For data set [2], the system named is Trichomonas vaginalis. The data set is described as above. As to conditions: for ED50: po; for ED50 / ED50 mg/kg per os mice: per os, mice, Trichomonas vaginalis infection; for Therapeutical Index (comparison in words): mouse, in vivo; for in vivo anti-Trichomonas activity (in words): experimental infection in mice. The procedure: as §1, §2, §3, §4, §5
Data set [3] is described as follows: toxicity (LD50) per os in mice, substantially according to Lichtfield and Wilcoxon. Conditions: mouse, in vivo, po. The method, then:
This activity, expressed as an ED50 value, is moreover coupled with a very low toxicity, expressed as an LD50 value, which was determined substantially according to the method described by Lichtfield and Wilcoxon, Journ. Pharm. Exp. Ther., 96, 99, 1949. In representative experiments, the following results have been obtained: […]

Data set [4] can be described thus: usual in vitro antibacterial tests. The source says: Though the compound of the present invention is formally embraced by the foregoing general formula, it is to be noted that in the cited Belgian Patent only concrete examples of 5-hydroxy lower alkyl substituents are reported, wherein the hydroxy lower alkyl groups are 2-hydroxyethyl or 2-hydroxypropyl, i.e. only primary or secondary alcohols are disclosed.

For the molecule `CCc1cnc([N+](=O)[O-])n1C` [reference compound], in data set [1], the selectivity ratio was 38. In data set [2], this molecule showed an ED50 of 9.8 mg/kg. For the same molecule, in data set [3], the LD50 amounted to 372 mg/kg.

Turning to `Cn1c(CO)cnc1[N+](=O)[O-]` [drawing 3], in data set [1], the selectivity ratio amounted to 24.8. Also, in data set [2], the 50% effective dose (ED50) was 14.1 mg/kg. This molecule also gave a 50% lethal dose (LD50) in data set [3] of 350 mg/kg.

Consider `CC(O)Cc1cnc([N+](=O)[O-])n1C` (stereo not drawn) [drawing 12], for which the “ED50 mg/kg per os mice” value in data set [2] was determined as 17 mg/kg. For the same molecule, the “LD50 mg/kg per os mice” value in data set [3] is given as 670 mg/kg.

In the case of `CC(O)Cc1cnc([N+](=O)[O-])n1C` (stereo not drawn) [drawing 5], in data set [1], the selectivity ratio is 39.4. This molecule also returned a 50% effective dose (ED50) in data set [2] of 17 mg/kg. In data set [3], this molecule displayed an LD50 of 670 mg/kg.

Consider `Cn1c(CCO)cnc1[N+](=O)[O-]`, for which, in data set [1], the selectivity ratio worked out at 43. Moreover, in data set [2], the 50% effective dose (ED50) stood at 35 mg/kg. Moreover, the median lethal dose (LD50) in data set [3] was 1500 mg/kg.

For `Cc1cnc([N+](=O)[O-])n1C`, the selectivity ratio in data set [1] was 23.4. Further, it took a dose of 10.5 mg/kg to reach the 50% effect level in data set [2] (ED50). In data set [3], the LD50 worked out at 246 mg/kg.

`Cn1c(CO)cnc1[N+](=O)[O-]` [Compound B, 5-hydroxymethyl-1-methyl-2-nitroimidazole, reference compound]: the “Therapeutical Index (comparison in words)” value in data set [2] is listed as “much lower than that of compound A”.

As for `CCCc1cnc([N+](=O)[O-])n1C` [reference compound], in data set [1], the selectivity ratio is 21.6. Also, the ED50 in data set [2] came out at 26 mg/kg. The LD50 in data set [3] is 560 mg/kg.

On to `CC(C)c1cnc([N+](=O)[O-])n1C` [K, 5-isopropyl-1-methyl-2-nitroimidazole, reference compound], for which the selectivity ratio in data set [1] amounted to 102.

With `CC(CO)c1cnc([N+](=O)[O-])n1C` (stereo not drawn) [drawing 14], the “ED50 mg/kg per os mice” value in data set [2] came out at 20 mg/kg.

For `CC(CO)c1cnc([N+](=O)[O-])n1C` (stereo not drawn) [drawing 6], in data set [1], the selectivity ratio came to 38.8. The molecule further had an ED50 in data set [2] of 20 mg/kg. The molecule further had an LD50 in data set [3] of 776 mg/kg.

As for `COC(C)(C)c1cnc([N+](=O)[O-])n1C` [Compound of formula V, 5-[(1-methoxy-1-methyl)ethyl]-1-methyl-2-nitroimidazole], the selectivity ratio in data set [1] turned out to be 160. Besides, in data set [2], the “in vivo anti-Trichomonas activity (in words)” value is recorded as “valuable degree of in vivo anti-Trichomonas activity”, the “Therapeutical Index (comparison in words)” value is reported as “not so high as that of the compound of formula I” and the median effective dose (ED50) is 2.18 mg/kg. In data set [3], the “LD50 mg/kg per os mice” value came to 350 mg/kg.

As to `Cn1c(C(C)(C)O)cnc1[N+](=O)[O-]` [Compound A, 5-[(1-hydroxy-1-methyl)ethyl]-1-methyl-2-nitroimidazole], in data set [4], the “antibacterial properties in vitro (in words)” value is “very interesting antibacterial properties”. Also, the selectivity ratio in data set [1] is 317. In addition, in data set [2], the “in vivo anti-Trichomonas activity (in words)” value is given as “far highest in vivo activity” and it took a dose of 2.3 mg/kg to reach the 50% effect level (ED50). For the same molecule, the “in vivo anti-Trichomonas activity (in words)” value in data set [2] (listed as compound of the invention) is given as “outstanding in vivo activity”. The same molecule yielded a median lethal dose (LD50) in data set [3] of 730 mg/kg.

The molecule `CC(C)c1cnc([N+](=O)[O-])n1C` [drawing 13] showed a median effective dose (ED50) in data set [2] of 2.6 mg/kg. Also, the “LD50 mg/kg per os mice” value in data set [3] is 265 mg/kg.

By ED50 is commonly meant the dose that gives a 50% effect, or the effect in half of the subjects. High values mean a need for a large dose, low ones an effect at a small dose. By LD50 is commonly meant the dose expected to kill half of the subjects tested.
